Here are results for one compound from ChEMBL document CHEMBL6127064, “Discovery of GNE-6893, a Potent, Selective, Orally Bioavailable Small Molecule Inhibitor of HPK1” (ACS Med Chem Lett, 2024).

The nature of series [1]: Protein binding in rat plasma. Format: ADME, cell-free. Conditions: read-out: PPB (converted).
Series [2] is described as follows: Half life in Sprague-Dawley rat at 0.5 mg/kg, iv measured for 8 hrs by LC-MS/MS analysis. It counts as ADME, organism-based. Conditions: in vivo.
In series [3] the target is Mitogen-activated protein kinase kinase kinase kinase 4 (Homo sapiens, UniProt O95819). Description: Inhibition of MAP4K4 (unknown origin).
Sequence of Mitogen-activated protein kinase kinase kinase kinase 4 (O95819 whole entry): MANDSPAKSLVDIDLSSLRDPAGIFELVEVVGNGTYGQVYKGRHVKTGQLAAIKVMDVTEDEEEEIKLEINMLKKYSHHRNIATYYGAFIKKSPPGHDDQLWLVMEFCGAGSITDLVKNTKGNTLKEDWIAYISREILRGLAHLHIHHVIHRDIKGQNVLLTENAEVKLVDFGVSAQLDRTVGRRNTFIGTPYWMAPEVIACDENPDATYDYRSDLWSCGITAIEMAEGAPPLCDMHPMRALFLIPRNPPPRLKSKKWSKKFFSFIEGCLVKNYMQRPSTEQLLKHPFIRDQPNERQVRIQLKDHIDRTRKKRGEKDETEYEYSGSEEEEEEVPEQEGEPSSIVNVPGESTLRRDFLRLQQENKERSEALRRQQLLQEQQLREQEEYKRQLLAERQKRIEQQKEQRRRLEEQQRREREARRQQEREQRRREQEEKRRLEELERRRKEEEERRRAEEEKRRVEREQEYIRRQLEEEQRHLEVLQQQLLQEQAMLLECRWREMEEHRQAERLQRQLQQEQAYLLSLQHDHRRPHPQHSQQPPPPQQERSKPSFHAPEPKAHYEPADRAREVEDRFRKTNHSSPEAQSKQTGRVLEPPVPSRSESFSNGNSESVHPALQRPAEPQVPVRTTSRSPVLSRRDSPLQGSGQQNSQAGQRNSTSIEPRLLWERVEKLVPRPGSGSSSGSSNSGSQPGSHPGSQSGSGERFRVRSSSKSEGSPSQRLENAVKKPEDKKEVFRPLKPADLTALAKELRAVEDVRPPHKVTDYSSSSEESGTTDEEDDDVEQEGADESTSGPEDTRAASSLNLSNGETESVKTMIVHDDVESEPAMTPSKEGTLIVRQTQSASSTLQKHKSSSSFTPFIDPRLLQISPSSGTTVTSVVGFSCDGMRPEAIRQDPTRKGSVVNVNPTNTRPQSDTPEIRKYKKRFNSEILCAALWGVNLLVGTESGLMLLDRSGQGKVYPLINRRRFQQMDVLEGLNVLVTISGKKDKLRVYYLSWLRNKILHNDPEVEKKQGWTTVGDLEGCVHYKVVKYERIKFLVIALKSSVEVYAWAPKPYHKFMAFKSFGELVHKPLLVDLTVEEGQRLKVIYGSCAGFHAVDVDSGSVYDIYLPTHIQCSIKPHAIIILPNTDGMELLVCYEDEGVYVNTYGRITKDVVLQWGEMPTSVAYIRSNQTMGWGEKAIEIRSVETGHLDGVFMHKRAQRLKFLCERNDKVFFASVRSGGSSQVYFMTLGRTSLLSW
The target of series [4] is T1, Mitogen-activated protein kinase kinase kinase kinase 3 (Homo sapiens, UniProt Q8IVH8).
T1 sequence (Q8IVH8 whole entry): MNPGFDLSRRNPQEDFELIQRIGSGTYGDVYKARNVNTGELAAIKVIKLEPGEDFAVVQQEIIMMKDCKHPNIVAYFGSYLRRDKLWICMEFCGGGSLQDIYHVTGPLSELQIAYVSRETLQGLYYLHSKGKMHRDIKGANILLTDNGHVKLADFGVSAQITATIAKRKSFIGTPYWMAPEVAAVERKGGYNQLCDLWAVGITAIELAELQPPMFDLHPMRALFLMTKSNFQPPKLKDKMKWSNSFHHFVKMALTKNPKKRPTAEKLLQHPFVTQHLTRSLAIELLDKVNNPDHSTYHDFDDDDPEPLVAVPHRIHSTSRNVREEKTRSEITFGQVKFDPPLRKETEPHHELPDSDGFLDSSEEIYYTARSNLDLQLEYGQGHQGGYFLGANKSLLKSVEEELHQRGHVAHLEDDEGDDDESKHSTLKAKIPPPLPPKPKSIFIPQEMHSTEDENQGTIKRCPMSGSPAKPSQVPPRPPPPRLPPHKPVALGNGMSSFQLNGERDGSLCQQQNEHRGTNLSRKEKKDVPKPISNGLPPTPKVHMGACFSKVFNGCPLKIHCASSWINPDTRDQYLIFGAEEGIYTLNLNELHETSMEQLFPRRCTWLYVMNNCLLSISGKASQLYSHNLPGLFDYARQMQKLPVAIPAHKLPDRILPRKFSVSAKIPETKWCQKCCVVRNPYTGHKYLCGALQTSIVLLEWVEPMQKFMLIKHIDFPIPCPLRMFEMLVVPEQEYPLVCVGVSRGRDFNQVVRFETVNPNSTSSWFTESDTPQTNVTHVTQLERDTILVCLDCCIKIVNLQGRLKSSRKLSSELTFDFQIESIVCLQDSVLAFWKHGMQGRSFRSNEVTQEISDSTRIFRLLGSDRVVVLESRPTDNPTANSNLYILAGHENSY
Put plainly: Inhibition of GLK (unknown origin).

In series [5] the target is Sodium channel protein type 5 subunit alpha (Homo sapiens, UniProt Q14524). Description: Inhibition of Nav1.5 (unknown origin).
Sequence of Sodium channel protein type 5 subunit alpha (Q14524 whole entry): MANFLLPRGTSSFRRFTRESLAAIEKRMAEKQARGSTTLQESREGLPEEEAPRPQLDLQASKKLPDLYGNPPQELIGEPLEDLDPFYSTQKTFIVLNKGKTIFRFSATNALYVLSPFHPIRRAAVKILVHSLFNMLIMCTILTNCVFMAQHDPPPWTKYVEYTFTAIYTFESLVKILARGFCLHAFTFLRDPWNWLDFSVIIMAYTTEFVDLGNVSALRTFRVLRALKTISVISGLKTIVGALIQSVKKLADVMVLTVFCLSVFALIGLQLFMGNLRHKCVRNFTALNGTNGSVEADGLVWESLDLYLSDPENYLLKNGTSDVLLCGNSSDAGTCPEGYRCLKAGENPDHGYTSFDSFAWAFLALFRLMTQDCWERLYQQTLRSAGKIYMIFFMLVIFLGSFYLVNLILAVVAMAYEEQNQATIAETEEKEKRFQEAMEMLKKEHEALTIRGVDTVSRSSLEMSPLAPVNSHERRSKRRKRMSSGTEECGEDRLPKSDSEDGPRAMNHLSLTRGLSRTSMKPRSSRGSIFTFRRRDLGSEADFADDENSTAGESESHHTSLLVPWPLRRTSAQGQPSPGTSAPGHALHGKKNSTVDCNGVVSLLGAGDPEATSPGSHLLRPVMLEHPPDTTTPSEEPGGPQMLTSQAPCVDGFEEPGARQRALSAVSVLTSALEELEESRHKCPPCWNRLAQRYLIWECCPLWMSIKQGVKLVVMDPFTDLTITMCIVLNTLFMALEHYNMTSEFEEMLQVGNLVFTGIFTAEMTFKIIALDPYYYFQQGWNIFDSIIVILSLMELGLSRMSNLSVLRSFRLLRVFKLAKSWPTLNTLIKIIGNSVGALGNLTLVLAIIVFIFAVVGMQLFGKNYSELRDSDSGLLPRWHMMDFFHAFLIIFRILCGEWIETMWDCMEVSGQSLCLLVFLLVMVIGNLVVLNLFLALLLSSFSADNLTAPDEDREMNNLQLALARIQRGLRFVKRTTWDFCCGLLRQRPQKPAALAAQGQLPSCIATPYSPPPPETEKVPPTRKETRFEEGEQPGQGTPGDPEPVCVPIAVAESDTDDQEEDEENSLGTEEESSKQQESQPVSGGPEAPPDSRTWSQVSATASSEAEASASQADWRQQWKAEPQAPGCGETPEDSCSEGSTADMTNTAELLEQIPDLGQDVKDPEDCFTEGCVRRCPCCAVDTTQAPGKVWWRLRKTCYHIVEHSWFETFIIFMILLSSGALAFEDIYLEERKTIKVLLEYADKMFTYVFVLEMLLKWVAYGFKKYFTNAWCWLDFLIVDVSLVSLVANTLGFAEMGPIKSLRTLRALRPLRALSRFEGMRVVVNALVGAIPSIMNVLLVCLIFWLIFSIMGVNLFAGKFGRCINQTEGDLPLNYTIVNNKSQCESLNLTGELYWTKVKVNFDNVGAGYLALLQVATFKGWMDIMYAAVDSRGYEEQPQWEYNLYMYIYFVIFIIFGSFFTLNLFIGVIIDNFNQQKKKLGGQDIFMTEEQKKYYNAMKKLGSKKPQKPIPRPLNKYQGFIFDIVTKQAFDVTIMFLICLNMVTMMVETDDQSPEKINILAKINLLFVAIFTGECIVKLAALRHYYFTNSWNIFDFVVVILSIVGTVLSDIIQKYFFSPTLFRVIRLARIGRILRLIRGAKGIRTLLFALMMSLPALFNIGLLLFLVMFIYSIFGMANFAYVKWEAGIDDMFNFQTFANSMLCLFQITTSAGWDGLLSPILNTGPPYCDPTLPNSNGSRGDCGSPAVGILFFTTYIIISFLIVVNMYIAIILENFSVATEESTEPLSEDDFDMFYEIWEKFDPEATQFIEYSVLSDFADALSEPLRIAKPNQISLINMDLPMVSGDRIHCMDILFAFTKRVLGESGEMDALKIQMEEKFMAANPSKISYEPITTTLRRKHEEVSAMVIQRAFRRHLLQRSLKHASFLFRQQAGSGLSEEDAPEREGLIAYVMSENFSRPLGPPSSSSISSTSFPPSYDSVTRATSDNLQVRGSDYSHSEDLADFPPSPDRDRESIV
Series [6] can be described thus: Oral bioavailability in C57BL/6 mouse at 25 mg/kg measured for 24 hrs by LC-MS/MS analysis. It counts as ADME, organism-based. Conditions: C57BL/6, mouse, in vivo.
Series [7] in a line: Volume of distribution at steady state in Sprague-Dawley rat at 0.5 mg/kg, iv measured for 8 hrs by LC-MS/MS analysis. It counts as ADME, organism-based. Conditions: in vivo, read-out: Vdss.
Series [8] is described as follows: Selectivity ratio of IC50 for inhibition of KHS1 (unknown origin) to Ki for inhibition of human full length HPK1-T165E/S171E mutant expressed in baculovirus expression system.
Series [9] in a line: Half life in C57BL/6 mouse at 25 mg/kg, po or 1 mg/kg, iv measured for 24 hrs by LC-MS/MS analysis. Format: ADME, organism-based. Conditions: in vivo.
Series [10] can be described thus: Clearance in Sprague-Dawley rat at 0.5 mg/kg, iv measured for 8 hrs by LC-MS/MS analysis. It counts as ADME, organism-based. Conditions: in vivo.
Series [11] can be described thus: Selectivity ratio of IC50 for inhibition of MINK1 (unknown origin) to Ki for inhibition of human full length HPK1-T165E/S171E mutant expressed in baculovirus expression system.
Series [12] concerns the target T2, D(4) dopamine receptor (Homo sapiens) (UniProt P21917).
T2 sequence (whole entry): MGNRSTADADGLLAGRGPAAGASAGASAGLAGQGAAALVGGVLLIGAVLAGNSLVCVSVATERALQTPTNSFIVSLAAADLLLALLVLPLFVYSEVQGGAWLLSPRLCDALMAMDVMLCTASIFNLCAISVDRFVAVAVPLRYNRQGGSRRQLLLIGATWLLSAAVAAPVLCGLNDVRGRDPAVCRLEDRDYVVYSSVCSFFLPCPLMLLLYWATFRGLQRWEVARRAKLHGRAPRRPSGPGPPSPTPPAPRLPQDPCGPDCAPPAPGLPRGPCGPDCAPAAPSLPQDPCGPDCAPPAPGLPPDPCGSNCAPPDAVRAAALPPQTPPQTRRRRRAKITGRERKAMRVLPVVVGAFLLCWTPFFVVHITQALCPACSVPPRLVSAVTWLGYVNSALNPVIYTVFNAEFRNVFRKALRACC
Put plainly: Inhibition of dopamine D4 receptor (unknown origin) at 10 uM.

A short description of series [13]: Apparent permeability of the compound across apical to basolateral side in dog MDCK1 cells at 10 uM by LC-MS/MS analysis. It counts as ADME, cell-based, Canis lupus familiaris. Conditions: MDCK.
Series [14] can be described thus: Half life in cynomolgus monkey at 0.5 mg/kg, po or 0.5 mg/kg, iv by measured for 24 hrs LC/MS/MS analysis. Format: ADME, organism-based, Macaca fascicularis. Conditions: in vivo.
Series [15] deals with Voltage-gated inwardly rectifying potassium channel KCNH2 (Homo sapiens, UniProt Q12809). Description: Inhibition of hERG. It counts as toxicity. For orientation: hERG is a cardiac potassium channel; its block is linked to QT prolongation.
Sequence of Voltage-gated inwardly rectifying potassium channel KCNH2 (Q12809 whole entry): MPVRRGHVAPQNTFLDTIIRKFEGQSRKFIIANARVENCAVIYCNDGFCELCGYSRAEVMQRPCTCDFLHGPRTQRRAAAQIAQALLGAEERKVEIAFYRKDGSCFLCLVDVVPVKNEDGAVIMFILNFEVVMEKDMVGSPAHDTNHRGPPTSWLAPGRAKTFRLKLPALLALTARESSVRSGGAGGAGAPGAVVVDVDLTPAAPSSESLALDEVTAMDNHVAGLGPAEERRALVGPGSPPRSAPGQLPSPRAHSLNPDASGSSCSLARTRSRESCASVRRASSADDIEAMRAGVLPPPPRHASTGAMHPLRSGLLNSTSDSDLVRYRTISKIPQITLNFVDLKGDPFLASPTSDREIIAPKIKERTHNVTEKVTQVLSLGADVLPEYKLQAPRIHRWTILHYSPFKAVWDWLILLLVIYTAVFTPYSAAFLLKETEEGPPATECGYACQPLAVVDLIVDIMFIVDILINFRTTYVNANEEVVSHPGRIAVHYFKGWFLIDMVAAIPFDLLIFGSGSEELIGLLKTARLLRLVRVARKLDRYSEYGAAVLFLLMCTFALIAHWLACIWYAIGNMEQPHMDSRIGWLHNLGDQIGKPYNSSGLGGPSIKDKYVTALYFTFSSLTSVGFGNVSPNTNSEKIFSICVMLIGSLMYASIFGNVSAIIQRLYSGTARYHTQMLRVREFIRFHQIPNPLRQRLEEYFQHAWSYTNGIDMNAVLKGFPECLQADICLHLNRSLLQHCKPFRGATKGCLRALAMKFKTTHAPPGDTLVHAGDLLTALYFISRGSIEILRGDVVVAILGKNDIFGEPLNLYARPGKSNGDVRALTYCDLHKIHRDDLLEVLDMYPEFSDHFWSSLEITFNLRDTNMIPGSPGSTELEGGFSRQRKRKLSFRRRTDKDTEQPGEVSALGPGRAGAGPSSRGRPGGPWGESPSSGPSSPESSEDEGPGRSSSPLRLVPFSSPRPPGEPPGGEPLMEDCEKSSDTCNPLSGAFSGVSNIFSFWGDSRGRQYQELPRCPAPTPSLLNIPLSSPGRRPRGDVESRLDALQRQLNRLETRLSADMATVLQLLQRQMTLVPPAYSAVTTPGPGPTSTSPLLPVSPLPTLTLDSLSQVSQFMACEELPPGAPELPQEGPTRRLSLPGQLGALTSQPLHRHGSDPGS

The structures appear in SMILES notation. Bounds are passed on as bounds.

One may read the half-life as the time in which the quantity being followed falls by half. The term IC50 denotes the concentration needed to halve the response being measured. For orientation: bioavailability means the share of a dose that reaches the circulation, judged against a reference dose that is usually intravenous. What is called clearance is the rate of elimination divided by the concentration. The term inhibition denotes the share of the control response that was lost under treatment. Usually Papp A→B stands for how fast a substance crosses the layer from the apical side. Consider `Cc1c(-c2cc3cc(NC(=O)O[C@H]4COC[C@@H]4C)ncc3c(N)c2F)cnc2c1NCCO2`, for which, in [1], the fraction unbound is 0.094. Further, the half-life is 1.3 h in [2], 1.7 h in [9] and 1.9 h in series [14]. The 50% inhibitory concentration (IC50) in [3] was 3.3 nM; in [4], 0.72 nM; in series [5] it was above 10000 nM; in series [15], 28000 nM. Besides, the bioavailability in series [6] was found to be 37%. Moreover, in [7], the Vd came to 2.2 L/kg. Further, the Ratio was above 170 in series [8] and above 200 in [11]. This compound also showed a clearance in series [10] of 39 mL/min/kg. Also, the inhibition in series [12] is 50%. In [13], the apparent permeability from apical to basolateral (Papp A→B) at 10 µM amounted to 15 ×10⁻⁶ cm/s.
